We go through twelve molecules from ChEMBL document CHEMBL4477257, “In vitro cytotoxicity of novel 2,5,7-tricarbo-substituted indoles derived from 2-amino-5-bromo-3-iodoacetophenone” (2016).

Common to all, as to type: functional
Assay [1] concerns HeLa. Nature of the assay: Cytotoxicity against human HeLa cells assessed as cell viability at 0.1 uM after 2 days by MTT assay relative to control. The conditions noted are these: 48 h, read-out: Activity. On the technique in general: Tetrazolium dyes change colour on reduction, which living cells bring about.
In assay [2] the test system is HeLa. As to the kind of experiment: Cytotoxicity against human HeLa cells assessed as reduction in cell viability after 2 days by MTT assay. The following applies: 48 h, read-out: LC50 (the source's name).
Assay [3] relates to MCF7. As to the kind of experiment: Cytotoxicity against human MCF7 cells assessed as cell viability at 10 uM after 2 days by MTT assay relative to control. The following applies: MCF7, 48 h, read-out: Activity.
The subject of assay [4] is MCF7. Nature of the assay: Cytotoxicity against human MCF7 cells assessed as cell viability at 1 uM after 2 days by MTT assay relative to control. The conditions noted are these: MCF7, 48 h, read-out: Activity.
Assay [5] has as its system HeLa. As to the kind of experiment: Cytotoxicity against human HeLa cells assessed as cell viability at 10 uM after 2 days by MTT assay relative to control. The conditions noted are these: 48 h, read-out: Activity.
The subject of assay [6] is MCF7. As to the kind of experiment: Cytotoxicity against human MCF7 cells assessed as reduction in cell viability after 2 days by MTT assay. The conditions noted are these: MCF7, 48 h, read-out: LC50 (the source's name).
The test system of assay [7] is MCF7. As to the kind of experiment: Cytotoxicity against human MCF7 cells assessed as cell viability at 0.1 uM after 2 days by MTT assay relative to control. The following applies: MCF7, 48 h, read-out: Activity.
The test system of assay [8] is HeLa. As to the kind of experiment: Cytotoxicity against human HeLa cells assessed as cell viability at 100 uM after 2 days by MTT assay relative to control. The conditions noted are these: 48 h, read-out: Activity.
Assay [9] concerns HeLa. As to the kind of experiment: Cytotoxicity against human HeLa cells assessed as cell viability at 1 uM after 2 days by MTT assay relative to control. The conditions noted are these: 48 h, read-out: Activity.
Assay [10] has as its system MCF7. Nature of the assay: Cytotoxicity against human MCF7 cells assessed as cell viability at 100 uM after 2 days by MTT assay relative to control. The following applies: MCF7, 48 h, read-out: Activity.

For the molecule `CC(=O)c1cc(/C=C/c2ccccc2)cc2cc(-c3ccc(F)cc3)[nH]c12`, the viability at 0.1 µM stood at 82.2% with HeLa [1] and 98.4% in the assay on MCF7 [7]. Further, the CC50 with HeLa [2] is 16.1 µM; in the assay on MCF7 [6], more than 100 µM. For the same molecule, the values for the viability at 10 µM with MCF7 [3] and in the assay with HeLa [5] were 69.5% and 51.9%, respectively. Besides, the viability at 1 µM in the assay with MCF7 [4] was 86.9%; in the assay on HeLa [9], 60.5%. For the same molecule, the viability at 100 µM with HeLa [8] was found to be 24.2%; in the assay on MCF7 [10], 50.1%.

Regarding `CC(=O)c1cc(-c2ccc(F)cc2)cc2cc(-c3ccc(F)cc3)[nH]c12`, the viability at 0.1 µM with HeLa [1] was determined as 90%; in the assay on MCF7 [7] it was 99.8%. Further, the CC50 in the assay with HeLa [2] was determined as 13.8 µM; in the assay with MCF7 [6], 87.4 µM. In addition, the viability at 10 µM with MCF7 [3] was found to be 90.6%; in the assay on HeLa [5] it was 47.4%. Also, the viability at 1 µM in the assay with MCF7 [4] came to 93.2%; in the assay with HeLa [9], 71.6%. In addition, the viability at 100 µM in the assay with HeLa [8] came to 9.31%; in the assay on MCF7 [10], 20%.

For the molecule `COc1ccc(-c2cc(C(C)=O)c3[nH]c(-c4ccc(F)cc4)cc3c2)cc1`, the viability at 0.1 µM turned out to be 74.5% with HeLa [1] and 88.4% with MCF7 [7]. In addition, the values for the CC50 in the assay with HeLa [2] and with MCF7 [6] were 9.46 µM and 16.8 µM, respectively. Besides, the results for the viability at 10 µM in the assay with MCF7 [3] and with HeLa [5] were 52.9% and 46.5%, respectively. The viability at 1 µM in the assay on MCF7 [4] came out at 69.7%; in the assay with HeLa [9], 56.1%. For the same molecule, the viability at 100 µM in the assay on HeLa [8] came to 20.6%; in the assay with MCF7 [10], 14.8%.

`CC(=O)c1cc(-c2ccccc2)cc2cc(-c3ccccc3)[nH]c12`: the figures for the viability at 0.1 µM with HeLa [1] and with MCF7 [7] were 72.3% and 99.3%, respectively. Also, the CC50 with HeLa [2] and in the assay with MCF7 [6] was more than 100 µM in each case. In addition, the figures for the viability at 10 µM in the assay on MCF7 [3] and in the assay with HeLa [5] were 96.2% and 60.9%, respectively. The viability at 1 µM is 98.6% with MCF7 [4] and 65.8% in the assay on HeLa [9]. Further, the results for the viability at 100 µM with HeLa [8] and with MCF7 [10] were 51.4% and 65.8%, respectively.

For the molecule `COc1ccc(-c2cc3cc(-c4ccccc4)cc(C(C)=O)c3[nH]2)cc1`, the viability at 0.1 µM in the assay on HeLa [1] came to 80.5%; in the assay with MCF7 [7], 87%. Further, the CC50 in the assay with HeLa [2] is 18.9 µM; in the assay on MCF7 [6] it was more than 100 µM. In addition, the viability at 10 µM in the assay with MCF7 [3] worked out at 64.5%; in the assay on HeLa [5] it was 51.6%. For the same molecule, the viability at 1 µM in the assay on MCF7 [4] came out at 78.1%; with HeLa [9], 61.5%. The figures for the viability at 100 µM with HeLa [8] and with MCF7 [10] were 32.8% and 43.5%, respectively.

Regarding `CC(=O)c1cc(-c2ccc(F)cc2)cc2cc(-c3ccccc3)[nH]c12`, the viability at 0.1 µM amounted to 90.3% in the assay with HeLa [1] and 98.3% in the assay with MCF7 [7]. Besides, the values for the CC50 in the assay on HeLa [2] and in the assay on MCF7 [6] were 38 µM and more than 100 µM, respectively. In addition, the viability at 10 µM in the assay on MCF7 [3] was 73.8%; in the assay with HeLa [5] it was 55.7%. The viability at 1 µM in the assay on MCF7 [4] and with HeLa [9] was 82.7% in each case. Also, the figures for the viability at 100 µM in the assay with HeLa [8] and with MCF7 [10] were 24.8% and 36.4%, respectively.

In the case of `COc1ccc(-c2cc3cc(-c4ccc(F)cc4)cc(C(C)=O)c3[nH]2)cc1`, the viability at 0.1 µM was 81% in the assay with HeLa [1] and 97.3% in the assay with MCF7 [7]. The CC50 was 42.8 µM in the assay with HeLa [2] and more than 100 µM with MCF7 [6]. The viability at 10 µM in the assay on MCF7 [3] is 77.5%; in the assay on HeLa [5], 52%. The viability at 1 µM with MCF7 [4] is 96.4%; with HeLa [9], 62.9%. Further, the viability at 100 µM in the assay with HeLa [8] came to 46.5%; in the assay on MCF7 [10], 47%.

In the case of `CC(=O)c1cc(/C=C/c2ccc(F)cc2)cc2cc(-c3ccccc3)[nH]c12`, the viability at 0.1 µM in the assay on HeLa [1] came out at 74.2%; in the assay on MCF7 [7], 89.7%. The CC50 in the assay with HeLa [2] amounted to 9.26 µM; with MCF7 [6], 18.5 µM. Also, the viability at 10 µM with MCF7 [3] is 46.5%; in the assay on HeLa [5], 32.8%. Besides, the viability at 1 µM in the assay on MCF7 [4] was found to be 72.2%; with HeLa [9], 70%. Besides, the values for the viability at 100 µM in the assay with HeLa [8] and with MCF7 [10] were 23.9% and 46.7%, respectively.

As for `CC(=O)c1cc(/C=C/c2ccccc2)cc2cc(-c3ccccc3)[nH]c12`, the viability at 0.1 µM with HeLa [1] came out at 99%; in the assay on MCF7 [7], 99.5%. Also, the CC50 with HeLa [2] is 30.8 µM; in the assay on MCF7 [6] it was more than 100 µM. In addition, the viability at 10 µM with MCF7 [3] turned out to be 86.5%; in the assay on HeLa [5] it was 52.5%. Further, the viability at 1 µM with MCF7 [4] was 93.4%; in the assay with HeLa [9], 79.8%. Besides, the viability at 100 µM in the assay on HeLa [8] was 21.2%; with MCF7 [10] it was 34.1%.

In the case of `COc1ccc(-c2cc(C(C)=O)c3[nH]c(-c4ccccc4)cc3c2)cc1`, the viability at 0.1 µM came to 87.9% in the assay with HeLa [1] and 99.2% in the assay with MCF7 [7]. In addition, the values for the CC50 in the assay with HeLa [2] and in the assay on MCF7 [6] were 15.5 µM and 47.8 µM, respectively. Further, the viability at 10 µM came out at 49.5% with MCF7 [3] and 33.9% with HeLa [5]. The figures for the viability at 1 µM in the assay on MCF7 [4] and in the assay on HeLa [9] were 88.8% and 73.1%, respectively. Further, the viability at 100 µM in the assay on HeLa [8] turned out to be 21.1%; in the assay on MCF7 [10] it was 30.8%.

Take `COc1ccc(-c2cc3cc(/C=C/c4ccc(F)cc4)cc(C(C)=O)c3[nH]2)cc1`: the viability at 0.1 µM with HeLa [1] is 90.5%; with MCF7 [7], 97.2%. In addition, the CC50 was found to be 8.77 µM with HeLa [2] and 83 µM in the assay on MCF7 [6]. The viability at 10 µM amounted to 76.5% with MCF7 [3] and 25.8% in the assay on HeLa [5]. The figures for the viability at 1 µM in the assay on MCF7 [4] and in the assay with HeLa [9] were 97.3% and 67%, respectively. For the same molecule, the values for the viability at 100 µM with HeLa [8] and in the assay with MCF7 [10] were 18.9% and 47.6%, respectively.

Regarding `CC(=O)c1cc(-c2ccccc2)cc2cc(-c3ccc(F)cc3)[nH]c12`, the viability at 0.1 µM was determined as 91.1% in the assay on HeLa [1] and 98.5% in the assay on MCF7 [7]. For the same molecule, the CC50 in the assay with HeLa [2] and with MCF7 [6] was more than 100 µM throughout. Besides, the results for the viability at 10 µM in the assay with MCF7 [3] and in the assay on HeLa [5] were 91.9% and 76.9%, respectively. Further, the figures for the viability at 1 µM in the assay with MCF7 [4] and with HeLa [9] were 96.8% and 85.1%, respectively. The viability at 100 µM amounted to 68.3% with HeLa [8] and 73.3% in the assay with MCF7 [10].
